The target in assay [1] is T1, Amine oxidase [flavin-containing] B (Homo sapiens, UniProt P27338).
T1 sequence (P27338 whole entry): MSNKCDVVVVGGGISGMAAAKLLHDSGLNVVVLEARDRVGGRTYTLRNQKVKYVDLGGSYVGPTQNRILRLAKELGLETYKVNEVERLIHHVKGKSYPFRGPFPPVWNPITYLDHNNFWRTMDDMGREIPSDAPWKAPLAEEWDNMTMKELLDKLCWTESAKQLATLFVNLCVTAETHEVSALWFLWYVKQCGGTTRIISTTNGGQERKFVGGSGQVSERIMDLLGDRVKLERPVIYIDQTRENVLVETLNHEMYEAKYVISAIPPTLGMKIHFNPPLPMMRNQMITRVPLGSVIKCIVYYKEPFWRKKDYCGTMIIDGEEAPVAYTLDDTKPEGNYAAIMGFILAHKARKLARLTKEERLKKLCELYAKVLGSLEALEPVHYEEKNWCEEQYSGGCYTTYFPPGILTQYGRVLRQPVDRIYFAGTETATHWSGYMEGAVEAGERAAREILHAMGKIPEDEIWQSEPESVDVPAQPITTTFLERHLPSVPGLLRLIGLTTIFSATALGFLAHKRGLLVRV
Briefly: Inhibition of recombinant human MAOB using kynuramine as substrate by fluorescence based assay.

Assay [2] addresses T2, Catechol O-methyltransferase (Rattus norvegicus, UniProt P22734).
T2 sequence (P22734 whole entry): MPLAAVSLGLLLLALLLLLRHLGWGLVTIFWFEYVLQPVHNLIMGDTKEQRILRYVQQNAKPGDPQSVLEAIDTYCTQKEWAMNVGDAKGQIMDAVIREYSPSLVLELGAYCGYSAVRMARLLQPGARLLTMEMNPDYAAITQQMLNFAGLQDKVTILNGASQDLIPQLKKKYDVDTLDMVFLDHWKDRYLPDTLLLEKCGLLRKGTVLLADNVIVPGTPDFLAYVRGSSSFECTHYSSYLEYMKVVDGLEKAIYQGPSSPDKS
Briefly: Inhibition of rat liver COMT using esculetin as substrate by fluorescence based spectrophotometry.

For assay [3], the target named is T3, Amine oxidase [flavin-containing] A (Homo sapiens, UniProt P21397).
T3 sequence (P21397 whole entry): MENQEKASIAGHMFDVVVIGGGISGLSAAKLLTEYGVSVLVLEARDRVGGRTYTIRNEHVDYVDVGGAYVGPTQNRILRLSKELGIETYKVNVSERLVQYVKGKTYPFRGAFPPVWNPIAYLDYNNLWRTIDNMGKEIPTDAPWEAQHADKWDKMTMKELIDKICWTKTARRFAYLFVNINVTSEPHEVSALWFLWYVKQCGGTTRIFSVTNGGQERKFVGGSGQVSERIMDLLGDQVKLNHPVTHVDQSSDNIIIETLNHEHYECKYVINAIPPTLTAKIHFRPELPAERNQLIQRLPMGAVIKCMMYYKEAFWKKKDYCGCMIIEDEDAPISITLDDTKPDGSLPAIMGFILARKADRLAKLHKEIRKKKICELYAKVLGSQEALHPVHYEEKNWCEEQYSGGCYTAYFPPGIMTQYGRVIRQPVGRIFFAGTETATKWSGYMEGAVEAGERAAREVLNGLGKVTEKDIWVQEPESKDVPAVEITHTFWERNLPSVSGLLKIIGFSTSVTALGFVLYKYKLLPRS
Briefly: Inhibition of recombinant human MAOA using kynuramine as substrate by fluorescence based assay.

The target in assay [4] is T4, Catechol O-methyltransferase (Rattus norvegicus) (UniProt P22734).
T4 sequence (whole entry): T2 sequence (P22734 whole entry)
Briefly: Potency index, ratio of IC50 of 1-(3,4-dihydroxy-5-nitro-phenyl)-3-(3-methoxyphenyl)prop-2-en-1-one to IC50 of compound for inhibition of rat liver COMT using esculetin as substrate by fluorescence based spectrophotometry.

Assay [5] deals with T5, Catechol O-methyltransferase (Homo sapiens, UniProt P21964).
T5 sequence (P21964 whole entry): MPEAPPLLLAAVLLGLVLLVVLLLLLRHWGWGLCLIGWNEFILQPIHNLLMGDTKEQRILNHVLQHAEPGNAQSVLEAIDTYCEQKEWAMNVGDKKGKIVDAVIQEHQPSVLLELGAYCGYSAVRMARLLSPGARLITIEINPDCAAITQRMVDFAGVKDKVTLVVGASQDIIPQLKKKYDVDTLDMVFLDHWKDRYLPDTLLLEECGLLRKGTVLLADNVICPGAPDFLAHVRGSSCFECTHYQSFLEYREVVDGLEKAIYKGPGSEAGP
Briefly: Inhibition of COMT (unknown origin).

The target in assay [6] is T3, Amine oxidase [flavin-containing] A. Nature of the assay: Inhibition of recombinant human MAOA expressed in insect cells measured after 20 mins by fluorescence spectrophotometry.
Assay [7] has as its target T1, Amine oxidase [flavin-containing] B. Nature of the assay: Inhibition of recombinant human MAOB expressed in insect cells measured after 20 mins by fluorescence spectrophotometry.

By IC50 is commonly meant the concentration needed to halve the response being measured. As to `Cn1cc(/C=C/C(=O)c2cc(O)c(O)c([N+](=O)[O-])c2)cn1`, the IC50 is 66.2 µM in assay [1], 0.29 µM in assay [2] and 51.5 µM in assay [3].

As for `O=C(/C=C/c1cccc(O)c1)c1cc(O)c(O)c([N+](=O)[O-])c1`, the half-inhibitory concentration (IC50) in assay [1] was determined as 55.8 µM; in assay [2] it was 0.14 µM; in assay [3], 43.9 µM.

Regarding `CC(=O)N1N=C(c2cc(O)c(O)c([N+](=O)[O-])c2)CC1c1cccs1` (centres undefined), the figures for the IC50 in assay [1], in assay [2] and in assay [3] were 69.2 µM, 0.21 µM and 86.3 µM, respectively.

For the molecule `O=C(/C=C/c1ccsc1)c1cc(O)c(O)c([N+](=O)[O-])c1`, the IC50 in assay [1] stood at 42.1 µM; in assay [2], 0.23 µM; in assay [3], 41.4 µM.

As to `CC(=O)N1N=C(c2cc(O)c(O)c([N+](=O)[O-])c2)CC1c1ccc(C#N)cc1` (centres undefined), the values for the IC50 in assay [1], in assay [2] and in assay [3] were 83.2 µM, 0.048 µM and 76.6 µM, respectively. For the same molecule, the Ratio IC50 in assay [4] came to 1.46.

As to `CC(=O)N1N=C(c2cc(O)c(O)c([N+](=O)[O-])c2)CC1c1nccs1` (centres undefined), the half-maximal inhibitory concentration (IC50) was found to be 68.2 µM in assay [1], 0.16 µM in assay [2] and 84.6 µM in assay [3].

Consider `CC(=O)N1N=C(c2cc(O)c(O)c([N+](=O)[O-])c2)CC1c1cccc(O)c1` (centres undefined), for which the IC50 in assay [1] is 85.2 µM; in assay [2] it was 0.075 µM; in assay [3] it was 87 µM.

On to `CC(=O)N1N=C(c2cc(O)c(O)c([N+](=O)[O-])c2)CC1c1cccc(C#N)c1` (centres undefined), for which the IC50 came to 55.4 µM in assay [1], 0.079 µM in assay [2] and 70.6 µM in assay [3].

In the case of `N#Cc1cccc(/C=C/C(=O)c2cc(O)c(O)c([N+](=O)[O-])c2)c1`, the 50% inhibitory concentration (IC50) was determined as 60.6 µM in assay [1], 0.24 µM in assay [2] and 58.9 µM in assay [3].

Take `CC(=O)N1N=C(c2cc(O)c(O)c([N+](=O)[O-])c2)CC1c1ccoc1` (centres undefined): the IC50 in assay [1] came to 126 µM; in assay [2], 0.18 µM; in assay [3], 90.9 µM.

As to `COc1cccc(/C=C/C(=O)c2cc(O)c(O)c([N+](=O)[O-])c2)c1`, the IC50 was 0.07 µM in assay [5] and 67.6 µM in assay [6].

On to `O=C(/C=C/c1cccc(Br)c1)c1cc(O)c(O)c([N+](=O)[O-])c1`, for which the half-inhibitory concentration (IC50) in assay [7] came to 13.9 µM; in assay [5] it was 0.29 µM; in assay [6], 76.1 µM.

Consider `N#Cc1ccc(/C=C/C(=O)c2cc(O)c(O)c([N+](=O)[O-])c2)cc1`, for which the 50% inhibitory concentration (IC50) came out at 56.6 µM in assay [1], 0.18 µM in assay [2] and 45.3 µM in assay [3].

Take `O=C(/C=C/c1ccco1)c1cc(O)c(O)c([N+](=O)[O-])c1`: the concentration for half-maximal inhibition (IC50) in assay [1] was 68.2 µM; in assay [2] it was 0.23 µM; in assay [3], 60.5 µM.

As to `O=C(/C=C/c1nccs1)c1cc(O)c(O)c([N+](=O)[O-])c1`, the IC50 amounted to 59.2 µM in assay [1], 0.24 µM in assay [2] and 69.6 µM in assay [3].

As for `O=C(/C=C/c1cccs1)c1cc(O)c(O)c([N+](=O)[O-])c1`, the half-inhibitory concentration (IC50) in assay [1] was 62.9 µM; in assay [2] it was 0.19 µM; in assay [3], 49.9 µM.

As to `CC(=O)N1N=C(c2cc(O)c(O)c([N+](=O)[O-])c2)CC1c1ccco1` (centres undefined), the figures for the concentration for half-maximal inhibition (IC50) in assay [1], in assay [2] and in assay [3] were 77.4 µM, 0.18 µM and 98 µM, respectively.

As for `O=C(/C=C/c1ccoc1)c1cc(O)c(O)c([N+](=O)[O-])c1`, the IC50 turned out to be 71.4 µM in assay [1], 0.29 µM in assay [2] and 52.9 µM in assay [3].

For the origin of these results see ChEMBL document CHEMBL4619744, “Evaluation of nitrocatechol chalcone and pyrazoline derivatives as inhibitors of catechol-O-methyltransferase and monoamine oxidase” (Bioorg Med Chem Lett, 2020).
